According to patent US12281149B2, “Modulators of G-protein coupled receptors” (priority 2021, dated 2025):
*1 amine or outer side, *2 acyl side, *3 side chain or, on linkers, in order; H or OH if unused. Where a SMILES comes first, the peptide text is derived from it. Side-chain parts run from the residue outwards. [ ]: non-standard residue; d: D form. The star is where a group is joined. Isobutyryl(2-(3-CN-5-F-Ph)) = CC(C)(C(=O)*)c1cc(F)cc(C#N)c1; C20 diacid = O=C(O)CCCCCCCCCCCCCCCCCCC(=O)*; X73 = CC(C)(C(=S)NCCC(=O)*)c1ccc(F)c(F)c1; γGlu = O=C(O)[C@H](CCC(=O)[*:2])N[*:1]; X5 = O=C(C1(c2ccc(F)cc2F)CCCC1)*; X69 = CC(C)(C(=O)*)c1c(F)cccc1F; AEEA = NCCOCCOCC(=O)O; Aib = CC(C)(N)C(=O)O; GABA = NCCCC(=O)O; βAla = NCCC(=O)O

Columns and labels:
Format in all cases: cell-based
GIP receptor [1] = molecular target: T1, GIP receptor (Homo sapiens, UniProt P48546); experiment: HitHunter cAMP assay, GIP receptor; conditions: for EC50: CHO cells stably expressing GIP receptor, cAMP accumulation, 30 min, read-out: EC50 GIP-1R; for Emax: CHO cells, cAMP, normalized to maximum signal from GIP (high) and DMSO (low), read-out: Emax GIP-1R
T1 sequence (P48546 22-466): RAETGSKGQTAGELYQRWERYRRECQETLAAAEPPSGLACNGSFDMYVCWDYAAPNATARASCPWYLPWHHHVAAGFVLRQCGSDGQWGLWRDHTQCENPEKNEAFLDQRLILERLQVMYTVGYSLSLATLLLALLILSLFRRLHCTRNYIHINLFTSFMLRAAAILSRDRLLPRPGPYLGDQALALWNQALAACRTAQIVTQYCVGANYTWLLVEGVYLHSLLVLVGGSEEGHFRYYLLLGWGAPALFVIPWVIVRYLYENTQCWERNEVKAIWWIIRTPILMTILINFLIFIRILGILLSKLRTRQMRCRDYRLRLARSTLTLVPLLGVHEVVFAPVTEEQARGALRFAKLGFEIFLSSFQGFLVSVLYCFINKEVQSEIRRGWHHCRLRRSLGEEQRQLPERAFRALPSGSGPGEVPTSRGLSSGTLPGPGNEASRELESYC
Procedure: CAMP accumulation was measured in Chinese hamster ovary (CHO) cells stably expressing the human GLP-1 receptor or GIP receptor using the HitHunter CAMP Assay for Small Molecules Kit (Eurofins). Briefly, cells were grown in Ham's F12 Nutrient Mix with 10% FBS and lifted with Cell dissociation buffer, Enzyme free, PBS based (ThermoFisher). Cells were pelleted and resuspended in Hank's buffered saline solution with 10 mM Hepes and 625 μM 3-isobutyl-1-methylxanthine. The antibody reagent was then added to cells at a 1:2 ratio and 5 μL of mixture was seeded in 384-well small volume white assay plates, at 10,000 cells/well. Cells were then treated with 50 nl compound in DMSO using an ECHO 550 acoustic dispenser (Labcyte) in a 20-point dose response format in triplicate for 30 min. Cells were the lysed and detection reagents added according to the manufacturer's protocol. After overnight incubation, luminescence was measured using a Perkin Elmer Envision plate reader. Raw data was normalized to the maximum signal from GLP-1 or GIP (high) and DMSO (low). Dose response curves were analyzed using GraphPad Prism 9.0.

GIP receptor [2] = molecular target: T1, GIP receptor; experiment: PathHunter β-arrestin assay, GIP receptor; design: host or cells: PathHunter CHO-K1 GIPR β-Arrestin Cell Line; conditions: β-arrestin-2 recruitment, PathHunter CHO-K1 GIPR β-Arrestin Cell Line, 90 min at 37° C.; normalized to GIP; read-out: GIPR β Arrestin EC50
GLP-1 receptor [3] = molecular target: T2, GLP-1 receptor (Homo sapiens, UniProt P43220); experiment: PathHunter β-arrestin assay, GLP-1 receptor; design: host or cells: PathHunter CHO-K1 GLP1R β-Arrestin Cell Line; conditions: β-arrestin-2 recruitment, PathHunter CHO-K1 GLP1R β-Arrestin Cell Line, 90 min at 37° C.; normalized to GLP-1; read-out: GLP-1R β Arrestin EC50
T2 sequence (P43220 24-463): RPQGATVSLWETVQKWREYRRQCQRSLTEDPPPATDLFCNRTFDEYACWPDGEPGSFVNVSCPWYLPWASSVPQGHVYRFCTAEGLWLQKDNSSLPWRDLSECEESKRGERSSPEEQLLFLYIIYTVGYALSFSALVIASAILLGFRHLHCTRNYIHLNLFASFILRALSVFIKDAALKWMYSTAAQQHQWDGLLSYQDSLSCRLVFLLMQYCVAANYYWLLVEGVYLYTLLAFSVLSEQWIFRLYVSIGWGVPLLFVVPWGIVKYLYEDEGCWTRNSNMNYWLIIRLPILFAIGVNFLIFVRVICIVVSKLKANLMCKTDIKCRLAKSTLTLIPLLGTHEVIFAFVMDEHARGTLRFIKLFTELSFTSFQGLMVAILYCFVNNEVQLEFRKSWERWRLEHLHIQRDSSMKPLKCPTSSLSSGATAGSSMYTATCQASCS

GLP-1 receptor [4] = molecular target: T2, GLP-1 receptor; experiment: HitHunter cAMP assay, GLP-1 receptor; conditions: for EC50: CHO cells stably expressing human GLP-1 receptor, cAMP accumulation, 30 min, read-out: EC50 GLP-1R; for Emax: CHO cells, cAMP, normalized to maximum signal from GLP-1 (high) and DMSO (low), read-out: Emax GLP-1R

For `CC[C@H](C)[C@H](NC(=O)[C@H](CC(C)C)NC(=O)[C@H](Cc1c[nH]c2ccccc12)NC(=O)[C@H](CCC(N)=O)NC(=O)[C@@H](NC(=O)[C@H](Cc1ccccc1)NC(=O)[C@H](C)NC(=O)[C@H](CCCCNC(=O)COCCOCCNC(=O)COCCOCCNC(=O)CC[C@H](NC(=O)CCCCCCCCCCCCCCCCCCC(=O)O)C(=O)O)NC(=O)[C@H](CCC(N)=O)NC(=O)[C@H](C)NC(=O)[C@@H](NC(=O)[C@H](CCCCN)NC(=O)[C@H](CC(=O)O)NC(=O)[C@H](CC(C)C)NC(=O)C(C)(C)NC(=O)[C@@H](NC(=O)[C@H](CO)NC(=O)[C@H](Cc1ccc(O)cc1)NC(=O)[C@H](CC(=O)O)NC(=O)[C@H](CO)NC(=O)[C@@H](NC(=O)[C@H](Cc1ccccc1)NC(=O)[C@@H](NC(=O)CNC(=O)[C@@H](CCC(=O)O)NC(=O)CCNC(=O)C(C)(C)c1cc(F)cc(C#N)c1)[C@@H](C)O)[C@@H](C)O)[C@@H](C)CC)[C@@H](C)CC)C(C)C)C(=O)N[C@@H](C)C(=O)NCC(=O)NCC(=O)N1CCC[C@H]1C(=O)N[C@@H](CO)C(=O)N[C@@H](CO)C(=O)NCC(=O)N[C@@H](C)C(=O)N1CCC[C@H]1C(=O)N1CCC[C@H]1C(=O)N1CCC[C@H]1C(=O)N[C@@H](CO)C(N)=O` [Compound 109] ({Isobutyryl(2-(3-CN-5-F-Ph))-βAla}-[dE]GTFTSDYSI[Aib]LDKIAQK([AEEA-AEEA-γGlu-C20 diacid])AFVQWLIAGGPSSGAPPPS-NH2), the EC50 (GIP receptor [1]) was 10 to 100 nM, the Emax (GIP receptor [1]) was 96% and the EC50 (GIP receptor [2]) was greater than 1000 nM. For the same compound, the EC50 (GLP-1 receptor [3]) was greater than 1000 nM, the EC50 (GLP-1 receptor [4]) was 10 to 100 nM and the Emax (GLP-1 receptor [4]) was 82%.
`CC[C@H](C)[C@H](NC(=O)[C@H](CC(C)C)NC(=O)[C@H](Cc1c[nH]c2ccccc12)NC(=O)[C@H](CCC(N)=O)NC(=O)[C@@H](NC(=O)[C@H](Cc1ccccc1)NC(=O)[C@H](C)NC(=O)[C@H](CCCCNC(=O)COCCOCCNC(=O)COCCOCCNC(=O)CC[C@H](NC(=O)CCCCCCCCCCCCCCCCCCC(=O)O)C(=O)O)NC(=O)[C@H](CCC(N)=O)NC(=O)[C@H](C)NC(=O)[C@@H](NC(=O)[C@H](CCCCN)NC(=O)[C@H](CC(=O)O)NC(=O)[C@H](CC(C)C)NC(=O)C(C)(C)NC(=O)[C@@H](NC(=O)[C@H](CO)NC(=O)[C@H](Cc1ccc(O)cc1)NC(=O)[C@H](CC(=O)O)NC(=O)[C@H](CO)NC(=O)[C@@H](NC(=O)[C@H](Cc1ccccc1)NC(=O)[C@@H](NC(=O)CNC(=O)[C@H](CCC(=O)O)NC(=O)CCNC(=S)C(C)(C)c1ccc(F)c(F)c1)[C@@H](C)O)[C@@H](C)O)[C@@H](C)CC)[C@@H](C)CC)C(C)C)C(=O)N[C@@H](C)C(=O)NCC(=O)NCC(=O)N1CCC[C@H]1C(=O)N[C@@H](CO)C(=O)N[C@@H](CO)C(=O)NCC(=O)N[C@@H](C)C(=O)N1CCC[C@H]1C(=O)N1CCC[C@H]1C(=O)N1CCC[C@H]1C(=O)N[C@@H](CO)C(N)=O` [Compound 137] (X73-EGTFTSDYSI[Aib]LDKIAQK([AEEA-AEEA-γGlu-C20 diacid])AFVQWLIAGGPSSGAPPPS-NH2) gave an EC50 (GIP receptor [1]) of 10 to 100 nM, an Emax (GIP receptor [1]) of 87% and an EC50 (GIP receptor [2]) greater than 1000 nM. For the same compound, the EC50 (GLP-1 receptor [3]) was greater than 1000 nM, the EC50 (GLP-1 receptor [4]) was 0.1 to 1 nM and the Emax (GLP-1 receptor [4]) was 99%.
`CC[C@H](C)[C@H](NC(=O)[C@H](CC(C)C)NC(=O)[C@H](Cc1c[nH]c2ccccc12)NC(=O)[C@H](CCC(N)=O)NC(=O)[C@@H](NC(=O)[C@H](Cc1ccccc1)NC(=O)[C@H](C)NC(=O)[C@H](CCCCNC(=O)COCCOCCNC(=O)COCCOCCNC(=O)CC[C@H](NC(=O)CCCCCCCCCCCCCCCCCCC(=O)O)C(=O)O)NC(=O)[C@H](CCC(N)=O)NC(=O)[C@H](C)NC(=O)[C@@H](NC(=O)[C@H](CCCCN)NC(=O)[C@H](CC(=O)O)NC(=O)[C@H](CC(C)C)NC(=O)C(C)(C)NC(=O)[C@@H](NC(=O)[C@H](CO)NC(=O)[C@H](Cc1ccc(O)cc1)NC(=O)[C@H](CC(=O)O)NC(=O)[C@H](CO)NC(=O)[C@@H](NC(=O)[C@H](Cc1ccccc1)NC(=O)[C@@H](NC(=O)CNC(=O)[C@H](CCC(=O)O)NC(=O)CCNC(=O)C(C)(C)c1c(F)cccc1F)[C@@H](C)O)[C@@H](C)O)[C@@H](C)CC)[C@@H](C)CC)C(C)C)C(=O)N[C@@H](C)C(=O)NCC(=O)NCC(=O)N1CCC[C@H]1C(=O)N[C@@H](CO)C(=O)N[C@@H](CO)C(=O)NCC(=O)N[C@@H](C)C(=O)N1CCC[C@H]1C(=O)N1CCC[C@H]1C(=O)N1CCC[C@H]1C(=O)N[C@@H](CO)C(N)=O` [Compound 163] ({X69-βAla}-EGTFTSDYSI[Aib]LDKIAQK([AEEA-AEEA-γGlu-C20 diacid])AFVQWLIAGGPSSGAPPPS-NH2) gave an EC50 (GIP receptor [1]) of 10 to 100 nM, an Emax (GIP receptor [1]) of 105% and an EC50 (GIP receptor [2]) of less than 1000 nM. It also gave an EC50 (GLP-1 receptor [3]) greater than 1000 nM, an EC50 (GLP-1 receptor [4]) of 0.1 to 1 nM and an Emax (GLP-1 receptor [4]) of 104%.
With `CC[C@H](C)[C@H](NC(=O)[C@H](CC(C)C)NC(=O)[C@H](Cc1c[nH]c2ccccc12)NC(=O)[C@H](CCC(N)=O)NC(=O)[C@@H](NC(=O)[C@H](Cc1ccccc1)NC(=O)[C@H](C)NC(=O)[C@H](CCCCNC(=O)COCCOCCNC(=O)COCCOCCNC(=O)CC[C@H](NC(=O)CCCCCCCCCCCCCCCCCCC(=O)O)C(=O)O)NC(=O)[C@H](CCC(N)=O)NC(=O)[C@H](C)NC(=O)[C@@H](NC(=O)[C@H](CCCCN)NC(=O)[C@H](CC(=O)O)NC(=O)[C@H](CC(C)C)NC(=O)C(C)(C)NC(=O)[C@@H](NC(=O)[C@H](CO)NC(=O)[C@H](Cc1ccc(O)cc1)NC(=O)[C@H](CC(=O)O)NC(=O)[C@H](CO)NC(=O)[C@@H](NC(=O)[C@H](Cc1ccccc1)NC(=O)[C@@H](NC(=O)CNC(=O)[C@H](CCC(=O)O)NC(=O)CCCNC(=O)C(C)(C)c1cc(F)cc(C#N)c1)[C@@H](C)O)[C@@H](C)O)[C@@H](C)CC)[C@@H](C)CC)C(C)C)C(=O)N[C@@H](C)C(=O)NCC(=O)NCC(=O)N1CCC[C@H]1C(=O)N[C@@H](CO)C(=O)N[C@@H](CO)C(=O)NCC(=O)N[C@@H](C)C(=O)N1CCC[C@H]1C(=O)N1CCC[C@H]1C(=O)N1CCC[C@H]1C(=O)N[C@@H](CO)C(N)=O` [Compound 200] ({Isobutyryl(2-(3-CN-5-F-Ph))-GABA}-EGTFTSDYSI[Aib]LDKIAQK([AEEA-AEEA-γGlu-C20 diacid])AFVQWLIAGGPSSGAPPPS-NH2) the EC50 (GIP receptor [1]) was 10 to 100 nM, the Emax (GIP receptor [1]) was 102% and the EC50 (GIP receptor [2]) was greater than 1000 nM. For the same compound, the EC50 (GLP-1 receptor [3]) was greater than 1000 nM, the EC50 (GLP-1 receptor [4]) was 0.1 to 1 nM and the Emax (GLP-1 receptor [4]) was 104%.
Work on `CC[C@H](C)[C@H](NC(=O)[C@H](CC(C)C)NC(=O)[C@H](Cc1c[nH]c2ccccc12)NC(=O)[C@H](CCC(N)=O)NC(=O)[C@@H](NC(=O)[C@H](Cc1ccccc1)NC(=O)[C@H](C)NC(=O)[C@H](CCCCNC(=O)COCCOCCNC(=O)COCCOCCNC(=O)CC[C@H](NC(=O)CCCCCCCCCCCCCCCCCCC(=O)O)C(=O)O)NC(=O)[C@H](CCC(N)=O)NC(=O)[C@H](C)NC(=O)[C@@H](NC(=O)[C@H](CCCCN)NC(=O)[C@H](CC(=O)O)NC(=O)[C@H](CC(C)C)NC(=O)C(C)(C)NC(=O)[C@@H](NC(=O)[C@H](CO)NC(=O)[C@H](Cc1ccc(O)cc1)NC(=O)[C@H](CC(=O)O)NC(=O)[C@H](CO)NC(=O)[C@@H](NC(=O)[C@H](Cc1ccccc1)NC(=O)[C@@H](NC(=O)CNC(=O)[C@H](CCC(=O)O)NC(=O)CCNC(=O)C1(c2ccc(F)cc2F)CCCC1)[C@@H](C)O)[C@@H](C)O)[C@@H](C)CC)[C@@H](C)CC)C(C)C)C(=O)N[C@@H](C)C(=O)NCC(=O)NCC(=O)N1CCC[C@H]1C(=O)N[C@@H](CO)C(=O)N[C@@H](CO)C(=O)NCC(=O)N[C@@H](C)C(=O)N1CCC[C@H]1C(=O)N1CCC[C@H]1C(=O)N1CCC[C@H]1C(=O)N[C@@H](CO)C(N)=O` [Compound 220] ({X5-βAla}-EGTFTSDYSI[Aib]LDKIAQK([AEEA-AEEA-γGlu-C20 diacid])AFVQWLIAGGPSSGAPPPS-NH2) yielded an EC50 (GIP receptor [1]) of 0.1 to 1 nM, an Emax (GIP receptor [1]) of 108% and an EC50 (GIP receptor [2]) of less than 1000 nM. The EC50 (GLP-1 receptor [3]) was greater than 1000 nM, the EC50 (GLP-1 receptor [4]) was 0.1 to 1 nM and the Emax (GLP-1 receptor [4]) was 102%.
